Tests used:
IL-2 = assay: CD3 and CD28 Activation of Peripheral Blood T Cells and Determination of Secreted IL-2 Levels (C28 HU Assay); assay type: cell-based, Human; conditions: PBMC stimulated with anti-CD3 and anti CD28 mAbs, 24 hour; for inhibition at 1 µM: concentration 1 μM (in c2); for IC50: IL-2 secretion
Protocol: Human peripheral blood mononuclear cells were cultured in RPMI 1640 medium supplemented with 10 μg/ml gentamicin, 50 μM 2-mercaptoethanol, 1X MEM non-essential amino acids (Sigma Chemical Co., St. Louis, Mo.), 100 U/ml sodium penicillin G, 100 μg/ml streptomycin sulfate, 2 mM L-glutamine, 1 mM sodium pyruvate (Life Technologies, Grand Island, N.Y.) and 10% fetal bovine serum (Hyclone, Logan, Utah) at 37° C. with 5% CO2.
Human peripheral blood mononuclear cells (PBMC) were isolated by Ficoll-Hypaque seperation. PBMCs were stimulated with a combination of immobilized anti-CD3 and soluble anti CD28 mAbs as described in Faltynek, et al. J. Enzyme Inhibition 1995, 9, 111-122, hereby incorporated by reference. Following a 24 hour incubation, cell supernatants were harvested and IL-2 levels were determined. 100 μl of 5 μg/ml monoclonal murine anti-human IL-2 antibody (Biosource International) in D-PBS was added to 96 well Maxisorb plates (Nunc) and incubated at 4° C. overnight. Plates were washed 4 times with D-PBS containing 0.05% Tween 20 (wash buffer) and blocked with D-PBS containing 1% BSA and 10 mM NaN3 (Diluent/Blocking buffer) for 1-3 hours at room temperature or overnight at 4° C. Plates were washed and recombinant human IL-2 diluted (at 10,000, 5,000, 2,500, 1,250, 625, 312.5, 156.25, 78, 39, 20 pg/ml) in diluent/blocking buffer containing a matched percentage of complete RPMI 1640 medium as the unknown samples. Tissue culture supernatant at various dilutions were added in triplicate at 100 μl/well. Plates were incubated for 2 hours at room temperature and washed 4 times with wash buffer. 100 pl of rabbit anti-human IL-2 (10 μg/ml, Genzyme) was added and incubated for 1 hour at room temperature. The incubation was followed by 4 washes and subsequent addition of 100 pl of 1:2000 dilution of alkaline phosphatase-conjugated goat anti-rabbit F(ab′)2 (Biosource International). After 1 hour the plates were washed 4 times and 100 μl of pNPP (Southern Biotech or Sigma) at 1 mg/ml in buffer was added. Color development was allowed to proceed at room temperature for 20 minutes before addition of 50 μl of 2 N NaOH. Absorbance at 405 nm was determined using a plate reader (Molecular Devices). IL-2 concentrations were calcualted using SoftMax (Molecular Devices) based on the IL-2 standard solutions.

[1] = tested on: Human peripheral blood mononuclear cells; assay: Human Concanavalin-A Proliferation Assay (Con HU Assay); assay type: cell-based; conditions: Homo sapiens, PBMC, concanavalin-A stimulated human PBMC; for inhibition at 100 µM / inhibition at 1 µM / inhibition at 10 µM: 72 h, 3 days, read-out: % Inhibition of proliferation (at concentrations of 1,10, or 100 μm); for inhibition at 100 µM: concentration 100 μm (in parentheses in the cell); for IC50: tritiated thymidine; for inhibition at 1 µM: concentration 1 μm (in parentheses in the cell); for inhibition at 10 µM: concentration 10 μm (in parentheses in the cell)
Method in brief: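 Proliferation read as tritiated thymidine uptake (0.5 μCi/well, 6 h pulse on day 3) in human PBMC cultured 3 days with 2.5 μg/ml (final) concanavalin-A. Cells, 50,000 per well in supplemented RPMI 1640 with 10% FBS, received compound 15 min before mitogen.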

[2] = Homo sapiens, read-out: % Inhibition of IL-2 secretion (At concentrations of 1, 10, or 100 μM)

SMILES | melting point | IC50 [1] | further results
O=C(Nc1ccc(-n2nc(C(F)(F)F)cc2C(F)(F)F)cc1)Nc1ccc(C(F)(F)F)cc1 [Example 33, N-[4-[3,5-bis(trifluoromethyl)-1H-pyrazol-1-yl]phenyl]-N′-[4-(trifluoromethyl)phenyl]urea] |  |  | inhibition at 1 µM (IL-2; [2]): 6%
O=C(Nc1ccccc1)Nc1ccc(-n2nc(C(F)(F)F)cc2C(F)(F)F)cc1 [Example 36, N-[4-[3,5-bis(trifluoromethyl)-1H-pyrazol-1-yl]phenyl]-N′-phenylurea] | 185 to 187 °C |  | inhibition at 1 µM (IL-2; [2]): 10%
O=C(Nc1ccc(-n2nc(C(F)(F)F)cc2C(F)(F)F)cc1)c1cnnc2ccccc12 [Example 118, N-[4-[3,5-bis(trifluoromethyl)-1H-pyrazol-1-yl]phenyl]-4-cinnolinecarboxamide] |  |  | inhibition at 1 µM (IL-2; [2]): 27%
O=C(Nc1ccc(-n2nc(C(F)(F)F)cc2C(F)(F)F)cc1)c1ccc(Oc2cc(Cl)cc(Cl)c2)o1 [Example 8, N-[4-[3,5-bis(trifluoromethyl)-1H-pyrazol-1-yl]phenyl]-5-(3,5-dichlorophenoxy)-2-furancarboxamide] | 152 to 153 °C |  | inhibition at 1 µM (IL-2; [2]): 20%
O=C(Nc1ccc(-n2nc(C(F)(F)F)cc2C(F)(F)F)cc1)C1CCc2ccccc2C1 (centres unmarked) [Example 153, N-[4-[3,5-bis(trifluoromethyl)-1H-pyrazol-1-yl]phenyl]-1,2,3,4-tetrahydro-2-naphthalenecarboxamide] | 199 to 201 °C |  | IC50 (IL-2; Homo sapiens): 457 nM; inhibition at 100 µM (IL-2; Homo sapiens, concentration 100 μM (in c2), read-out: % Inhibition of IL-2 secretion (At concentrations of 1, 10, or 100 μM)): 94%
CC(C)(Oc1ccc(Cl)cc1)C(=O)Nc1ccc(-n2nc(C(F)(F)F)cc2C(F)(F)F)cc1 [Example 155, N-[4-[3,5-bis(trifluoromethyl)-1H-pyrazol-1-yl]phenyl]-2-(4-chlorophenoxy)-2-methylpropanamide] |  |  | inhibition at 1 µM (IL-2; [2]): 8%
O=C(Nc1ccc(-n2nc(C(F)(F)F)cc2C(F)(F)F)cc1)C12CC3CC(CC(C3)C1)C2 [Example 62] |  |  | IC50 (IL-2): 5040 nM
N#Cc1cccc(NC(=O)Nc2ccc(-n3nc(C(F)(F)F)cc3C(F)(F)F)cc2)c1 [Example 16, N-[4-[3,5-bis(trifluoromethyl)-1H-pyrazol-1-yl]phenyl]-N′-(3-cyanophenyl)urea] | 204 to 205 °C | 4190 nM | inhibition at 100 µM [1]: 100%
COC(=O)c1ccc(C(=O)Nc2ccc(-n3nc(C(F)(F)F)cc3C(F)(F)F)cc2)cc1 [Example 142, methyl 4-[[[4-[3,5-bis(trifluoromethyl)-1H-pyrazol-1-yl]phenyl]amino]carbonyl]benzoate] | 195 to 196 °C | 489 nM | inhibition at 10 µM [1]: 99%
N#Cc1cccc(/C=C/c2ccc(-n3nc(C(F)(F)F)cc3C(F)(F)F)cc2)c1 [Example 132, (E)-3-[2-[4-[3,5-bis(trifluoromethyl)-1H-pyrazol-1-yl]phenyl]ethenyl]benzonitrile] | 116 to 117 °C | 6220 nM | inhibition at 10 µM [1]: 56%
CC(=O)Oc1ccccc1C(=O)Nc1ccc(-n2nc(C(F)(F)F)cc2C(F)(F)F)cc1 [Example 76, 2-(Acetyloxy)-N-[4-[3,5-bis(trifluoromethyl)-1H-pyrazol-1-yl]phenyl]benzamide] | 159 to 161 °C | 3170 nM | inhibition at 100 µM [1]: 100%
O=C(Nc1ccc(-n2nc(C(F)(F)F)cc2C(F)(F)F)cc1)c1ccc[nH]1 [Example 166, N-[4-[3,5-bis(trifluoromethyl)-1H-pyrazol-1-yl]phenyl]-1H-pyrrole-2-carboxamide] | > 240 °C |  | inhibition at 1 µM [1]: 11%
O=C(Nc1ccc(-n2nc(C(F)(F)F)cc2C(F)(F)F)cc1)C1=CCCC1 [Example 10, N-[4-[3,5-bis(trifluoromethyl)-1H-pyrazol-1-yl]phenyl]-1-cyclopentene-1-carboxamide] | 174 to 175 °C | 114 nM | inhibition at 10 µM [1]: 100%
Cc1ccc(C(=O)Nc2ccc(-n3nc(C(F)(F)F)cc3C(F)(F)F)cc2)cc1 [Example 100, N-[4-[3,5-bis (trifluoromethyl)-1H-pyrazol-1-yl]phenyl]-4-methylbenzamide] | 225 to 226 °C | 2150 nM | inhibition at 100 µM [1]: 75%

Continued, in another order:

melting point | SMILES | IC50 [1] | further results
144 to 145 °C | Cc1nc(C)n(-c2ccc(NC(=O)c3snnc3C)cc2)n1 [Example 289, N-[4-(3,5-dimethyl-1H-1,2,4-triazol-1-yl)phenyl]-4-methyl-1,2,3-thiadiazole-5-carboxamide] |  | inhibition at 1 µM [1]: 22%
176 to 177 °C | O=C(Nc1ccc(F)cc1F)c1ccc(-n2nc(C(F)(F)F)cc2C(F)(F)F)cc1 [Example 187, 4-[3,5-Bis(trifluoromethyl)-1H-pyrazol-1-yl]-N-(2,4-difluorophenyl)benzamide] | 362 nM | inhibition at 1 µM [1]: 86%
66 to 67 °C | O=C(Nc1ccc(-n2nc(C(F)(F)F)cc2C(F)(F)F)cc1F)c1ccc(F)cc1F [Example 272, N-[4-[3,5-bis(trifluoromethyl)-1H-pyrazol-1-yl]-2-fluorophenyl]-2,4-difluorobenzamide] |  | inhibition at 1 µM [1]: 10%
192 to 193 °C | N#Cc1ccc(NC(=O)c2ccc(-n3nc(C(F)(F)F)cc3C(F)(F)F)cc2)cc1 [Example 193, 4-[3,5-Bis(trifluoromethyl)-1H-pyrazol-1-yl]-N-(4-cyanophenyl)benzamide] |  | inhibition at 1 µM [1]: 8%
211 to 212 °C | Cn1cc(C(=O)Nc2ccc(-n3nc(C(F)(F)F)cc3C(F)(F)F)cc2)cn1 [Example 265, N-[4-[3,5-bis(trifluoromethyl)-1H-pyrazol-1-yl]phenyl]-1-methyl-1H-pyrazole-4-carboxamide] | 3810 nM | inhibition at 10 µM [1]: 90%
149 to 152 °C | O=C(Nc1ccc(-n2nc(C(F)(F)F)cc2C(F)(F)F)cc1)c1cc(F)c(F)cc1Cl [Example 223, N-[4-[3,5-bis(trifluoromethyl)-1H-pyrazol-1-yl]phenyl]-2-chloro-4,5-difluorobenzamide] | 93 nM | inhibition at 10 µM [1]: 100%
168 to 169 °C | O=C(Nc1ccc(-n2nc(C(F)(F)F)cc2C(F)(F)F)cc1)c1cc(F)ccc1F [Example 211, N-[4-[3,5-bis(trifluoromethyl)-1H-pyrazol-1-yl]phenyl]-2,5-difluorobenzamide] | 39 nM | inhibition at 10 µM [1]: 98%
133 to 134 °C | O=C(Nc1cccc(-n2nc(C(F)(F)F)cc2C(F)(F)F)c1)c1ccc(F)cc1F [Example 203, N-[3-[3,5-bis(trifluoromethyl)-1H-pyrazol-1-yl]phenyl]-2,4-difluorobenzamide] |  | inhibition at 1 µM [1]: 1%
159 to 160 °C | COc1cc(C(F)(F)F)nn1-c1ccc(NC(=O)c2snnc2C)cc1 [Example 314, N-(4-(5-methoxy-3-(trifluoromethyl)-1H-pyrazol-1-yl)phenyl)-4-methyl-1,2,3-thiadiazole-5-carboxamide] | 246 nM | 
64 to 65 °C | Cc1noc(C)c1C(=O)Nc1ccc(-n2nc(C(F)(F)F)cc2C(F)(F)F)c(Cl)c1 [Example 277, N-[4-[3,5-bis(trifluoromethyl)-1H-pyrazol-1-yl]-3-chlorophenyl]-3,5-dimethyl-4-isoxazolecarboxamide] | 1060 nM | inhibition at 100 µM [1]: 99%
